Experimental data from the Kinase Knowledgebase extract (Sharma et al. 2016).
pIC50: −log10 of the molar value.

Each compound was assayed against CDK2 (human) (UniProt P24941) (assay: Enzyme Assay).

SMILES | pIC50
COC(=O)[C@H](Cc1ccc(O)cc1)NC(=O)c1cc(C(=O)O)c2cc(-c3cccc([N+](=O)[O-])c3)ccc2n1 | ≥ 6.00
O=C(N[C@@H](Cc1ccc(O)cc1)c1ncc[nH]1)c1cc(C(=O)O)c2cc(-c3cccc(C(F)(F)F)c3)ccc2n1 | ≥ 6.00
COC[C@H](Cc1ccc(O)cc1)NC(=O)c1cc(C(=O)O)c2cc(-c3cccc(C(F)(F)F)c3)ccc2n1 | ≥ 6.00
COC(=O)[C@H](Cc1ccc(O)cc1)NC(=O)c1cc(C(=O)O)c2cc(-c3ccc(Cl)cc3)ccc2n1 | ≥ 6.00
COC[C@H](Cc1ccc(O)cc1)NC(=O)c1cc(C(=O)O)c2cc(OCc3ccc(C(F)(F)F)cc3)ccc2n1 | ≥ 6.00
COC(=O)[C@H](Cc1ccc(O)cc1)NC(=O)c1cc(C(=O)O)c2cc(C=Cc3ccc(F)cc3)ccc2n1 | ≥ 6.00
COC(=O)[C@H](Cc1ccc(O)cc1)NC(=O)c1cc(C(=O)O)c2cc(-c3cc4ccccc4s3)ccc2n1 | ≥ 6.00
COC(=O)[C@H](Cc1ccc(O)cc1)NC(=O)c1cc(C(=O)O)c2cc(CCc3ccccc3)ccc2n1 | ≥ 6.00
COC[C@H](Cc1ccc(O)cc1)NC(=O)c1cc(-c2nnn[nH]2)c2cc(-c3cccc(C(F)(F)F)c3)ccc2n1 | ≥ 6.00
COC(=O)[C@H](Cc1ccc(O)cc1)NC(=O)c1cc(C(=O)O)c2cc(-c3cccc(C#N)c3)ccc2n1 | ≥ 6.00
COC[C@H](Cc1ccc(O)cc1)NC(=O)c1cc(C(=O)O)c2cc(-c3cccc(Cn4ccccc4=O)c3)ccc2n1 | ≥ 6.00
COC(=O)[C@H](Cc1ccc(O)cc1)NC(=O)c1cc(C(=O)O)c2cc(-c3ccc(C(C)C)cc3)ccc2n1 | ≥ 6.00
CCCCCC=Cc1ccc2nc(C(=O)N[C@H](COC)Cc3ccc(O)cc3)cc(C(=O)O)c2c1 | ≥ 6.00
O=C(NC(Cc1ccc(O)cc1)C1CCCCC1)c1cc(C(=O)O)c2cc(-c3cccc(C(F)(F)F)c3)ccc2n1 (stereo not given) | ≥ 6.00
COC(=O)[C@H](Cc1ccc(O)cc1)NC(=O)c1cc(C(=O)O)c2cc(-c3ccc(OC)cc3)ccc2n1 | ≥ 6.00
COC(=O)[C@H](Cc1ccc(O)cc1)NC(=O)c1cc(C(=O)O)c2cc(-c3cc(C)cc(C)c3)ccc2n1 | ≥ 6.00

SMILES | pIC50
COC(=O)[C@H](Cc1ccc(O)cc1)NC(=O)c1cc(C(=O)O)c2cc(-c3ccc(F)c(Cl)c3)ccc2n1 | ≥ 6.00
O=C(N[C@@H](Cc1ccc(O)cc1)C(=O)NC1CC1)c1cc(C(=O)O)c2cc(C=Cc3ccc(Cl)cc3)ccc2n1 | ≥ 6.00
COC(=O)[C@H](Cc1ccc(O)cc1)NC(=O)c1cc(C(=O)O)c2cc(-c3ccc(Oc4ccccc4)cc3)ccc2n1 | ≥ 6.00
COC(=O)[C@H](Cc1ccc(O)cc1)NC(=O)c1cc(C(=O)O)c2cc(-c3ccc(C)s3)ccc2n1 | ≥ 6.00
CCCCCC#Cc1ccc2nc(C(=O)N[C@H](COC)Cc3ccc(O)cc3)cc(C(=O)O)c2c1 | ≥ 6.00
COC(=O)[C@H](Cc1ccc(O)cc1)NC(=O)c1cc(C(=O)O)c2cc(CCC(C)(C)C)ccc2n1 | ≥ 6.00
COC[C@H](Cc1ccc(O)cc1)NC(=O)c1cc(NS(=O)(=O)C(C)(C)C)c2cc(-c3cccc(COc4ccccn4)c3)ccc2n1 | ≥ 6.00
COC(=O)[C@H](Cc1ccc(O)cc1)NC(=O)c1cc(C(=O)O)c2cc(-c3cccc(-c4ccccc4)c3)ccc2n1 | ≥ 6.00
CN(C)C(=O)[C@H](Cc1ccc(O)cc1)NC(=O)c1cc(C(=O)O)c2cc(C=Cc3ccc(Cl)cc3)ccc2n1 | ≥ 6.00
CON=C[C@H](Cc1ccc(O)cc1)NC(=O)c1cc(C(=O)O)c2cc(-c3cccc(C(F)(F)F)c3)ccc2n1 | ≥ 6.00
COC[C@H](Cc1ccc(O)cc1)NC(=O)c1cc(C(=O)O)c2cc(C=Cc3ccc(Cl)cc3)ccc2n1 | ≥ 6.00
CCCCCCCc1ccc2nc(C(=O)N[C@H](COC)Cc3ccc(O)cc3)cc(C(=O)O)c2c1 | ≥ 6.00
COC(=O)[C@H](Cc1ccc(O)cc1)NC(=O)c1cc(C(=O)O)c2cc(-c3ccc(C)c([N+](=O)[O-])c3)ccc2n1 | ≥ 6.00
COC(=O)[C@H](Cc1ccc(O)cc1)NC(=O)c1cc(C(=O)O)c2cc(-c3ccc(F)c(C)c3)ccc2n1 | ≥ 6.00
COC(=O)[C@H](Cc1ccc(O)cc1)NC(=O)c1cc(C(=O)O)c2cc(-c3ccccc3)ccc2n1 | ≥ 6.00

The remaining lines, values ahead:

pIC50 | SMILES
≥ 6.00 | COC(=O)[C@H](Cc1ccc(O)cc1)NC(=O)c1cc(C(=O)O)c2cc(-c3ccc(OC(F)(F)F)cc3)ccc2n1
≥ 6.00 | COC(=O)[C@H](Cc1ccc(O)cc1)NC(=O)c1cc(C(=O)O)c2cc(CCc3ccc(C(F)(F)F)cc3)ccc2n1
≥ 6.00 | COC(=O)[C@H](Cc1ccc(O)cc1)NC(=O)c1cc(C(=O)O)c2cc(-c3cccc(C(C)C)c3)ccc2n1
≥ 6.00 | COC(=O)[C@H](Cc1ccc(O)cc1)NC(=O)c1cc(C(=O)O)c2cc(-c3cc(Cl)cc(Cl)c3)ccc2n1
≥ 6.00 | COC(=O)[C@H](Cc1ccc(O)cc1)NC(=O)c1cc(C(=O)O)c2cc(-c3cccc(C)c3)ccc2n1
≥ 6.00 | COC(=O)[C@H](Cc1ccc(O)cc1)NC(=O)c1cc(C(=O)O)c2cc(CCc3ccc(Cl)cc3)ccc2n1
≥ 6.00 | COC(=O)[C@H](Cc1ccc(O)cc1)NC(=O)c1cc(C(=O)O)c2cc(-c3cc4ccccc4o3)ccc2n1
≥ 6.00 | COC(=O)[C@H](Cc1ccc(O)cc1)NC(=O)c1cc(C(=O)O)c2cc(C=CC(C)(C)C)ccc2n1
≥ 6.00 | CCCCCCc1ccc2nc(C(=O)N[C@@H](Cc3ccc(O)cc3)C(=O)OC)cc(C(=O)O)c2c1
≥ 6.00 | COC(=O)[C@H](Cc1ccc(O)cc1)NC(=O)c1cc(C(=O)O)c2cc(-c3cccs3)ccc2n1
≥ 6.00 | COC(=O)[C@H](Cc1ccc(O)cc1)NC(=O)c1cc(C(=O)O)c2cc(C=Cc3ccc(Cl)cc3)ccc2n1
≥ 6.00 | COC[C@H](Cc1ccc(O)cc1)NC(=O)c1cc(S(=O)(=O)O)c2cc(-c3cccc(C(F)(F)F)c3)ccc2n1
≥ 6.00 | CNC(=O)[C@H](Cc1ccc(O)cc1)NC(=O)c1cc(C(=O)O)c2cc(C=Cc3ccc(Cl)cc3)ccc2n1
≥ 6.00 | Cc1cnc([C@H](Cc2ccc(O)cc2)NCc2cc(C(=O)O)c3cc(-c4cccc(C(F)(F)F)c4)ccc3n2)o1
≥ 6.00 | CCCC(Cc1ccc(O)cc1)NC(=O)c1cc(C(=O)O)c2cc(-c3cccc(C(F)(F)F)c3)ccc2n1 (stereo not given)
≥ 6.00 | COC(=O)[C@H](Cc1ccc(O)cc1)NC(=O)c1cc(C(=O)O)c2cc(-c3ccc(Cl)c(Cl)c3)ccc2n1
≥ 6.00 | COC[C@H](Cc1ccc(O)cc1)NC(=O)c2cc(C(=O)O)c3cc(ccc3n2)c4cccc(CN5=CC(=CC=C5)O)c4
≥ 6.00 | COC(=O)[C@H](Cc1ccc(O)cc1)NC(=O)c1cc(NS(C)(=O)=O)c2cc(-c3cccc(C(F)(F)F)c3)ccc2n1
≥ 6.00 | COC(=O)[C@H](Cc1ccc(O)cc1)NC(=O)c1cc(C(=O)O)c2cc(CCc3ccc(F)cc3)ccc2n1
